Results: BigSolDB 2.1

Nc1ncnc2c1ncn2[C@@H]1O[C@H](COP(=O)(O)O)[C@@H](O)[C@H]1O
solubility (mole fraction)
Settings	in acetic acid	in ethanol	in methanol	in water
288.15 K	7.85e-05	5.3e-06	8.59e-06	–
288.2 K	–	–	–	0.000257
294.15 K	0.000122	5.61e-06	9.35e-06	–
294.2 K	–	–	–	0.000336
300.15 K	0.000186	6.75e-06	1.04e-05	–
300.2 K	–	–	–	0.000412
306.15 K	0.000276	7.73e-06	1.15e-05	–
306.2 K	–	–	–	0.000526
312.15 K	0.000395	9.24e-06	1.3e-05	–
312.2 K	–	–	–	0.000636
318.15 K	0.000564	1.06e-05	1.41e-05	–
318.2 K	–	–	–	0.000768
324.15 K	0.00075	1.24e-05	1.65e-05	–
324.2 K	–	–	–	0.000934
330.15 K	0.000967	1.54e-05	1.79e-05	–
